Source: PubChem BioAssay (NCI)
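Compound exposure: 48 hours, 5 concentrations, 96-well plates. The concentration for full growth arrest is given as TGI.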

Experiments:
Experiment in all cases: NCI tumour cell line growth inhibition, 48 h
A498 renal = test system: A498 renal
UACC-257 melanoma = test system: UACC-257 melanoma
HL-60(TB) leukemia = test system: HL-60(TB) leukemia
K-562 leukemia = test system: K-562 leukemia
NCI-H522 lung = test system: NCI-H522 lung
CCRF-CEM leukemia = test system: CCRF-CEM leukemia
NCI-H23 lung = test system: NCI-H23 lung
MDA-MB-231 breast = test system: MDA-MB-231 breast
SR leukemia = test system: SR leukemia
SF-295 CNS = test system: SF-295 CNS
TK-10 renal = test system: TK-10 renal
MOLT-4 leukemia = test system: MOLT-4 leukemia
T-47D breast = test system: T-47D breast
SN12C renal = test system: SN12C renal
SK-MEL-2 melanoma = test system: SK-MEL-2 melanoma
UACC-62 melanoma = test system: UACC-62 melanoma
PC-3 prostate = test system: PC-3 prostate
HS 578T breast = test system: HS 578T breast
SF-539 CNS = test system: SF-539 CNS
SNB-19 CNS = test system: SNB-19 CNS
SW-620 colon = test system: SW-620 colon
HCT-116 colon = test system: HCT-116 colon
OVCAR-8 ovarian = test system: OVCAR-8 ovarian
OVCAR-3 ovarian = test system: OVCAR-3 ovarian
NCI-H460 lung = test system: NCI-H460 lung
UO-31 renal = test system: UO-31 renal
HOP-92 NSCLC = test system: HOP-92 NSCLC
M14 melanoma = test system: M14 melanoma
IGROV1 ovarian = test system: IGROV1 ovarian
OVCAR-4 ovarian = test system: OVCAR-4 ovarian
HCT-15 colon = test system: HCT-15 colon
MCF7 breast = test system: MCF7 breast
OVCAR-5 ovarian = test system: OVCAR-5 ovarian
786-0 renal = test system: 786-0 renal
DU-145 prostate = test system: DU-145 prostate
KM12 colon = test system: KM12 colon
COLO 205 colon = test system: COLO 205 colon
HT29 colon = test system: HT29 colon
NCI/ADR-RES ovarian = test system: NCI/ADR-RES ovarian
BT-549 breast = test system: BT-549 breast
SF-268 CNS = test system: SF-268 CNS
MDA-MB-435 = test system: MDA-MB-435
HCC-2998 colon = test system: HCC-2998 colon
RXF 393 renal = test system: RXF 393 renal
ACHN renal = test system: ACHN renal
SK-MEL-28 melanoma = test system: SK-MEL-28 melanoma
LOX IMVI melanoma = test system: LOX IMVI melanoma
SK-MEL-5 melanoma = test system: SK-MEL-5 melanoma
MDA-N = test system: MDA-N
MALME-3M melanoma = test system: MALME-3M melanoma
A549 NSCLC = test system: A549 NSCLC
SNB-75 CNS = test system: SNB-75 CNS
CAKI-1 renal = test system: CAKI-1 renal
SK-OV-3 ovarian = test system: SK-OV-3 ovarian
HOP-62 NSCLC = test system: HOP-62 NSCLC
EKVX NSCLC = test system: EKVX NSCLC
U251 CNS = test system: U251 CNS
NCI-H226 lung = test system: NCI-H226 lung
RPMI-8226 leukemia = test system: RPMI-8226 leukemia

CCN1CCN(c2ccc(Nc3ccnc4ccc5c(nnn5C)c34)cc2)CC1
TGI (A498 renal): 29.5 µM
TGI (UACC-257 melanoma): 26.1 µM
TGI (HL-60(TB) leukemia): 25.9 µM
TGI (K-562 leukemia): 28.2 µM
TGI (NCI-H522 lung): 6.21 µM
TGI (CCRF-CEM leukemia): 54.7 µM
TGI (NCI-H23 lung): 29.4 µM
TGI (MDA-MB-231 breast): 27.2 µM
TGI (SR leukemia): 15.8 µM
TGI (SF-295 CNS): 22.7 µM
TGI (TK-10 renal): 45.6 µM
TGI (MOLT-4 leukemia): 35.1 µM
TGI (T-47D breast): 38.3 µM
TGI (SN12C renal): 16 µM
TGI (SK-MEL-2 melanoma): 24.8 µM
TGI (UACC-62 melanoma): 27.1 µM
TGI (PC-3 prostate): 17.7 µM
TGI (HS 578T breast): 31.9 µM
TGI (SF-539 CNS): 11.1 µM
TGI (SNB-19 CNS): 15.1 µM
TGI (SW-620 colon): 19 µM
TGI (HCT-116 colon): 14.3 µM
TGI (OVCAR-8 ovarian): 40.8 µM
TGI (OVCAR-3 ovarian): 18.9 µM
TGI (NCI-H460 lung): 11.9 µM
TGI (UO-31 renal): 25.7 µM
TGI (HOP-92 NSCLC): 21.8 µM
TGI (M14 melanoma): 23.9 µM
TGI (IGROV1 ovarian): 32.6 µM
TGI (OVCAR-4 ovarian): 48.2 µM
TGI (HCT-15 colon): 16.4 µM
TGI (MCF7 breast): 14.8 µM
TGI (OVCAR-5 ovarian): 24.2 µM
TGI (786-0 renal): 15.9 µM
TGI (DU-145 prostate): 18.3 µM
TGI (KM12 colon): 12.4 µM
TGI (COLO 205 colon): 15.4 µM
TGI (HT29 colon): 72.4 µM
TGI (NCI/ADR-RES ovarian): 36.7 µM
TGI (BT-549 breast): 36.3 µM
TGI (SF-268 CNS): 23.1 µM
TGI (MDA-MB-435): 17.9 µM
TGI (HCC-2998 colon): 6.94 µM
TGI (RXF 393 renal): 23.4 µM
TGI (ACHN renal): 11.5 µM
TGI (SK-MEL-28 melanoma): 23.9 µM
TGI (LOX IMVI melanoma): 13.1 µM
TGI (SK-MEL-5 melanoma): 23 µM
TGI (MDA-N): 14.4 µM
TGI (MALME-3M melanoma): 23.6 µM
TGI (A549 NSCLC): 22.3 µM
TGI (SNB-75 CNS): 30.5 µM
TGI (CAKI-1 renal): 21.7 µM
TGI (SK-OV-3 ovarian): 32.2 µM
TGI (HOP-62 NSCLC): 17.4 µM
TGI (EKVX NSCLC): 43.9 µM
TGI (U251 CNS): 19 µM

COc1cc(CNc2ccc3nc4n(c(=O)c3c2)CCCCC4)cc(OC)c1OC
TGI (A498 renal): > 100 µM
TGI (UACC-257 melanoma): 75.8 µM
TGI (HL-60(TB) leukemia): > 100 µM
TGI (K-562 leukemia): > 100 µM
TGI (NCI-H522 lung): > 100 µM
TGI (CCRF-CEM leukemia): > 100 µM
TGI (NCI-H23 lung): > 100 µM
TGI (MDA-MB-231 breast): > 100 µM
TGI (SR leukemia): > 100 µM
TGI (SF-295 CNS): > 100 µM
TGI (TK-10 renal): > 100 µM
TGI (MOLT-4 leukemia): > 100 µM
TGI (T-47D breast): > 100 µM
TGI (SN12C renal): > 100 µM
TGI (SK-MEL-2 melanoma): > 100 µM
TGI (UACC-62 melanoma): > 100 µM
TGI (PC-3 prostate): > 100 µM
TGI (HS 578T breast): > 100 µM
TGI (SF-539 CNS): > 100 µM
TGI (SW-620 colon): > 100 µM
TGI (NCI-H226 lung): > 100 µM
TGI (HCT-116 colon): > 100 µM
TGI (OVCAR-8 ovarian): > 100 µM
TGI (OVCAR-3 ovarian): > 100 µM
TGI (NCI-H460 lung): > 100 µM
TGI (UO-31 renal): > 100 µM
TGI (HOP-92 NSCLC): > 100 µM
TGI (M14 melanoma): > 100 µM
TGI (IGROV1 ovarian): > 100 µM
TGI (OVCAR-4 ovarian): > 100 µM
TGI (HCT-15 colon): > 100 µM
TGI (RPMI-8226 leukemia): > 100 µM
TGI (MCF7 breast): > 100 µM
TGI (OVCAR-5 ovarian): > 100 µM
TGI (786-0 renal): > 100 µM
TGI (DU-145 prostate): > 100 µM
TGI (KM12 colon): > 100 µM
TGI (COLO 205 colon): > 100 µM
TGI (HT29 colon): > 100 µM
TGI (NCI/ADR-RES ovarian): > 100 µM
TGI (BT-549 breast): 71.6 µM
TGI (SF-268 CNS): > 100 µM
TGI (MDA-MB-435): > 100 µM
TGI (RXF 393 renal): > 100 µM
TGI (ACHN renal): > 100 µM
TGI (SK-MEL-28 melanoma): > 100 µM
TGI (LOX IMVI melanoma): > 100 µM
TGI (SK-MEL-5 melanoma): 50.8 µM
TGI (MDA-N): > 100 µM
TGI (MALME-3M melanoma): > 100 µM
TGI (A549 NSCLC): > 100 µM
TGI (SNB-75 CNS): > 100 µM
TGI (CAKI-1 renal): > 100 µM
TGI (SK-OV-3 ovarian): > 100 µM
TGI (HOP-62 NSCLC): > 100 µM
TGI (EKVX NSCLC): > 100 µM
TGI (U251 CNS): > 100 µM

COc1ccc(/C=C/C(=O)/C=C/c2ccc(OC)cc2)cc1
TGI (A498 renal): > 100 µM
TGI (UACC-257 melanoma): 41.3 µM
TGI (HL-60(TB) leukemia): 53.7 µM
TGI (K-562 leukemia): > 100 µM
TGI (NCI-H522 lung): > 100 µM
TGI (CCRF-CEM leukemia): > 100 µM
TGI (NCI-H23 lung): > 100 µM
TGI (MDA-MB-231 breast): > 100 µM
TGI (SR leukemia): 68.4 µM
TGI (SF-295 CNS): > 100 µM
TGI (TK-10 renal): > 100 µM
TGI (MOLT-4 leukemia): > 100 µM
TGI (T-47D breast): > 100 µM
TGI (SN12C renal): > 100 µM
TGI (SK-MEL-2 melanoma): > 100 µM
TGI (UACC-62 melanoma): > 100 µM
TGI (PC-3 prostate): > 100 µM
TGI (HS 578T breast): > 100 µM
TGI (SF-539 CNS): 72.7 µM
TGI (SNB-19 CNS): > 100 µM
TGI (SW-620 colon): 52.5 µM
TGI (NCI-H226 lung): 98.3 µM
TGI (HCT-116 colon): 23.3 µM
TGI (OVCAR-8 ovarian): 31.4 µM
TGI (OVCAR-3 ovarian): > 100 µM
TGI (NCI-H460 lung): > 100 µM
TGI (UO-31 renal): > 100 µM
TGI (HOP-92 NSCLC): 80.6 µM
TGI (M14 melanoma): 57.2 µM
TGI (IGROV1 ovarian): > 100 µM
TGI (OVCAR-4 ovarian): > 100 µM
TGI (HCT-15 colon): > 100 µM
TGI (RPMI-8226 leukemia): 55.9 µM
TGI (MCF7 breast): > 100 µM
TGI (OVCAR-5 ovarian): > 100 µM
TGI (786-0 renal): > 100 µM
TGI (DU-145 prostate): > 100 µM
TGI (KM12 colon): 59.6 µM
TGI (COLO 205 colon): 95.4 µM
TGI (HT29 colon): > 100 µM
TGI (NCI/ADR-RES ovarian): > 100 µM
TGI (BT-549 breast): > 100 µM
TGI (SF-268 CNS): > 100 µM
TGI (MDA-MB-435): 29.6 µM
TGI (HCC-2998 colon): 15.7 µM
TGI (RXF 393 renal): 36.6 µM
TGI (ACHN renal): > 100 µM
TGI (SK-MEL-28 melanoma): > 100 µM
TGI (LOX IMVI melanoma): > 100 µM
TGI (SK-MEL-5 melanoma): > 100 µM
TGI (MDA-N): 49 µM
TGI (MALME-3M melanoma): > 100 µM
TGI (A549 NSCLC): > 100 µM
TGI (SNB-75 CNS): > 100 µM
TGI (CAKI-1 renal): > 100 µM
TGI (SK-OV-3 ovarian): > 100 µM
TGI (HOP-62 NSCLC): > 100 µM
TGI (EKVX NSCLC): > 100 µM
TGI (U251 CNS): 68.6 µM
